Reference: PubChem BioAssay (NCI)
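Growth conditions: 96-well plates. Treatment: test compound, 48 hours, 5 concentrations. Analysis: linear interpolation between bracketing concentrations; unreached endpoints set to highest concentration. At the TGI there is no net growth.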

Experiments:
Assay in all cases: NCI tumour cell line growth inhibition, 48 h
[1] = test system: HCC-2998 colon
[2] = test system: NCI-H460 lung
[3] = test system: OVCAR-8 ovarian
[4] = test system: UO-31 renal
[5] = test system: NCI-H23 lung
[6] = test system: HOP-92 NSCLC
[7] = test system: TK-10 renal
[8] = test system: SNB-19 CNS
[9] = test system: IGROV1 ovarian
[10] = test system: A549 NSCLC
[11] = test system: SK-MEL-2 melanoma
[12] = test system: SW-620 colon
[13] = test system: HS 578T breast
[14] = test system: SNB-75 CNS
[15] = test system: OVCAR-4 ovarian
[16] = test system: MDA-MB-231 breast
[17] = test system: T-47D breast
[18] = test system: OVCAR-3 ovarian
[19] = test system: RXF 393 renal
[20] = test system: KM12 colon
[21] = test system: A498 renal
[22] = test system: SF-295 CNS
[23] = test system: CAKI-1 renal
[24] = test system: DU-145 prostate
[25] = test system: NCI/ADR-RES ovarian
[26] = test system: MDA-N
[27] = test system: MALME-3M melanoma
[28] = test system: RPMI-8226 leukemia
[29] = test system: SF-268 CNS
[30] = test system: HOP-62 NSCLC
[31] = test system: HT29 colon
[32] = test system: M14 melanoma
[33] = test system: PC-3 prostate
[34] = test system: CCRF-CEM leukemia
[35] = test system: NCI-H522 lung
[36] = test system: SF-539 CNS
[37] = test system: SK-OV-3 ovarian
[38] = test system: BT-549 breast
[39] = test system: SK-MEL-5 melanoma
[40] = test system: UACC-62 melanoma
[41] = test system: SN12C renal
[42] = test system: U251 CNS
[43] = test system: COLO 205 colon
[44] = test system: MCF7 breast
[45] = test system: OVCAR-5 ovarian
[46] = test system: EKVX NSCLC
[47] = test system: NCI-H226 lung
[48] = test system: HCT-116 colon
[49] = test system: 786-0 renal
[50] = test system: HL-60(TB) leukemia
[51] = test system: ACHN renal
[52] = test system: UACC-257 melanoma
[53] = test system: SR leukemia
[54] = test system: HCT-15 colon
[55] = test system: LOX IMVI melanoma
[56] = test system: SK-MEL-28 melanoma
[57] = test system: MDA-MB-435

Measured: TGI

COC(=O)C1(CCC(=O)N(C)c2ccccc2)NNC2C(=O)N(c3ccccc3)C(=O)C21 (configuration not stated)
> 10 µM: all assays above
